Literature values in patent US20030113270A1, “Vasoactive intestinal peptides for glaucomatous retinopathy” (priority 2001, published 2003).
Where no end group is shown, it is not given here.

Tested on: neuronal survival

Substance | potency in promoting neuronal survival relative to VIP (more potent than VIP) [fold] | neuroprotection (Alzheimer's disease-relevant models)
Stearyl-norleucine^17-VIP [SNV] | 100 | 
vasoactive intestinal polypeptide (HSDAVFTDNYTRLRKQMAVKKYLNSILN; ends and bridges not checked; UniProt P01282 125-152, looked up) [VIP, 28 amino acid neuropeptide] |  | provide neuroprotection
